Measurements as given in US20070082903A1, “Remedy for rheumatoid arthritis” (priority 2003, published 2007).

Assays:
[1] = tested on: rats with adjuvant arthritis; conditions: cited from earlier work
[2] = repeated administration test on healthy male Japanese (7 days); assay type: in vivo, human
Protocol: AUC0-24 level of the agent in its repeated administration to humans A repeated administration test on healthy male Japanese of 20 to 40 years old was carried out. Using the SMP-114 tablets and placebo tablets, 80 mg of each of the placebo and SMP-114 was orally administered once a day for 7 days by a placebo controlled double-blind method (8 cases of SMP-114 administration and 2 cases of placebo administration: 10 subjects in total).

[3] = tested on: patients with rheumatoid arthritis; experiment: administration to patients with rheumatoid arthritis, ACR criterion evaluation at 16 weeks; assay type: in vivo, human; conditions: for improvement rate: SF-36 mental scale / improvement rate: SF-36 physical scale / improvement rate: erythrocyte sedimentation rate / improvement rate: patient's self-assessed physical functions / improvement rate: reduction of swollen joint count / improvement rate: reduction of tender joint count / improvement rate: patient's assessment of pain / improvement rate: patient's global assessment of disease activity / improvement rate: physician's global assessment of disease activity / improvement rate: CRP: 16 weeks vs initial value; for improvement rate: patient's assessment of pain / improvement rate: patient's global assessment of disease activity / improvement rate: physician's global assessment of disease activity: VAS; for improvement rate: CRP: in % (unit assumed)
From the text: When 20% or more improvement is observed in the items 1) and 2) and 20% or more improvement is observed in at least three of the five items 3) to 7), the therapeutic effect is rated as “20% improvement on the criterion established by the American College of Rheumatology” (20% improvement on the ACR criterion). • 1) Reduction of tender joint count. • 2) Reduction of swollen joint count. • 3) Patient's global assessment of disease activity. • 4) Physician's global assessment of disease activity. • 5) Patient's assessment of pain. • 6) Patient's self-assessed physical functions. • 7) CRP or erythrocyte sedimentation rate.
Similarly, when 50% or more improvement is observed in the items 1) and 2) and 50% or more improvement is observed in at least three of the five items 3) to 7), the therapeutic effect is rated as “50% improvement on the criterion established by the American College of Rheumatology” (50% improvement on the ACR criterion).
SMP-114 was orally administered once a day after a meal to patients with rheumatoid arthritis who had been treated with 1 to 5 DMARDs other than SMP-114 (to whom these DMARDs seemed to be non-administrable because of their side effects, or for whom these DMARDs seemed to be ineffective or insufficiently effective). As to the dose, a placebo, 40 mg/day, 80 mg/day and 120 mg/day were employed (about 50 cases per group). […] SMP-114 was continuously administered to patients in whom the standard had been reached, until the 24th week while keeping the test blind. Sixteen weeks after the start of the administration, the placebo group, 40 mg/day group, 80 mg/day group and 120 mg/day group were compared with respect to the proportion of patients satisfying the requirement “20% improvement on the criterion established by the American College of Rheumatology”, whereby the efficacy of the SMP-114 was evaluated (in the present example, the following ratings were given on a visual analogue scale (VAS): 3) a patient's global assessment of disease activity, 4) a physician's global assessment of disease activity, and 5) a patient's assessment of pain, on the ACR criterion.).
When the following improvements are observed on the above-mentioned criterion of improvement established by the American College of Rheumatology, it is judged that “50% improvement on the criterion established by the American College of Rheumatology” (50% improvement on the ACR criterion) has been achieved: 50% or more improvement is observed in the items 1) and 2) and 50% or more improvement is observed in at least three of the five items 3) to 7). The efficacy of SMP-114 may be evaluated on the basis of the proportion of patients satisfying the requirement “50% improvement on the criterion established by the American College of Rheumatology”.
The efficacy of SMP-114 may be evaluated on the basis of improvement rates of the above-mentioned rating items on the criterion established by the American College of Rheumatology and QOL measure (SF-36) (Ware, J E. & Sherbourne C D., “The MOS 36-Item Short-Form Health Survey (SF-36); 1. Conceptual 10 Framework and Item Selection.”, Med Care 1981; 18:806). The improvement rates may be expressed as the rates of change calculated on the basis of the difference between values obtained 16 weeks after the start of the administration and initial values obtained before the start of the administration.
Stratification analysis was carried out by employing as an indication the history of treatment with disease modifying antirheumatic drugs (DMARDs) other than SMP-114, i.e., the number of the DMARDs other than SMP-114 which had been used. There are shown below the results of the analysis carried out by dividing patients into patients with rheumatoid arthritis who had been treated with one or two DMARDs other than SMP-114 (group A) and patients with rheumatoid arthritis who had been treated with 3 to 5 DMARDs other than SMP-114 (group B). […]

[4] = tested on: mice with collagen arthritis; conditions: cited from earlier work
[5] = 40 mg/day, 16 weeks, erythrocyte sedimentation rate used as item 7)
[6] = 80 mg/day, 16 weeks, erythrocyte sedimentation rate used as item 7)
[7] = 120 mg/day, 16 weeks, erythrocyte sedimentation rate used as item 7)
[8] = total active groups, patient's assessment of pain (VAS) < 67
[9] = total active groups, patient's assessment of pain (VAS) ≧ 67
[10] = total active groups, physician's global assessment (VAS) < 63
[11] = total active groups, physician's global assessment (VAS) ≧ 63

Question: Which results are given for `C[C@@H](c1ccc(-c2ccccc2)c(F)c1)c1cc(/N=C(/N)N2CCOCC2)on1` [SMP-114, 3-[(1S)-1-(2-fluorobiphenyl-4-yl)ethyl]-5-{[amino(morpholin-4-yl)methylene]amino}isoxazole]?
Answer: minimum effective amount for antiarthritic effect ([1]; once-a-day oral administration): 2.5 mg/kg; antiarthritic effect ([1]; rats with adjuvant arthritis): antiarthritic effect; accumulative property ([2]; 80 mg once a day for 7 days): no accumulative property; tolerance ([2]; 80 mg oral once a day for 7 days): satisfactory; AUC(0-t) ([2]; human, serum, 80 mg oral once a day for 7 days, tablets, read-out: AUC0-24 at a steady state): 15300 ng·h/mL; improvement rate: SF-36 mental scale ([3]; 40 mg/day): 43.7%; improvement rate: SF-36 physical scale ([3]; 40 mg/day): 33.3%; improvement rate: erythrocyte sedimentation rate ([3]; 40 mg/day): 3.2%; improvement rate: patient's self-assessed physical functions ([3]; 40 mg/day): 4.3%; improvement rate: reduction of swollen joint count ([3]; 40 mg/day): 22.3%; improvement rate: reduction of tender joint count ([3]; 40 mg/day): 16.0%; improvement rate: patient's assessment of pain ([3]; 40 mg/day): 17.1%; improvement rate: patient's global assessment of disease activity ([3]; 40 mg/day): 19.3%; improvement rate: physician's global assessment of disease activity ([3]; 40 mg/day): 12.7%; improvement rate: CRP ([3]; 40 mg/day): −12.3; ACR20 improvement rate ([3]; 40 mg/day, 16 weeks, CRP used as item 7)): 38.2%; ACR20 improvement rate [3, 5]: 38.2%; ACR50 improvement rate [3, 5]: 10.9%; Number of ACR50 responders ([3]; 40 mg/day, 55 patients): 6; Number of ACR20 responders ([3]; 40 mg/day, 55 patients, CRP used): 21; Number of ACR20 responders ([3]; 40 mg/day, 55 patients, erythrocyte sedimentation rate used): 21; improvement rate: SF-36 mental scale ([3]; 80 mg/day): 46.1%; improvement rate: SF-36 physical scale ([3]; 80 mg/day): 28.8%; improvement rate: erythrocyte sedimentation rate ([3]; 80 mg/day): 4.0%; improvement rate: patient's self-assessed physical functions ([3]; 80 mg/day): 10.6%; improvement rate: reduction of swollen joint count ([3]; 80 mg/day): 18.7%; improvement rate: reduction of tender joint count ([3]; 80 mg/day): 27.6%; improvement rate: patient's assessment of pain ([3]; 80 mg/day): 16.5%; improvement rate: patient's global assessment of disease activity ([3]; 80 mg/day): 20.5%; improvement rate: physician's global assessment of disease activity ([3]; 80 mg/day): 21.5%; improvement rate: CRP ([3]; 80 mg/day): −26.4; ACR20 improvement rate ([3]; 80 mg/day, 16 weeks, CRP used as item 7)): 34.5%; ACR20 improvement rate [3, 6]: 36.4%; ACR50 improvement rate [3, 6]: 10.9%; Number of ACR50 responders ([3]; 80 mg/day, 55 patients): 6; Number of ACR20 responders ([3]; 80 mg/day, 55 patients, CRP used): 19; Number of ACR20 responders ([3]; 80 mg/day, 55 patients, erythrocyte sedimentation rate used): 20; improvement rate: SF-36 mental scale ([3]; 120 mg/day): 44.8%; improvement rate: SF-36 physical scale ([3]; 120 mg/day): 30.2%; improvement rate: erythrocyte sedimentation rate ([3]; 120 mg/day): −7.5%; improvement rate: patient's self-assessed physical functions ([3]; 120 mg/day): −8.7%; improvement rate: reduction of swollen joint count ([3]; 120 mg/day): 19.7%; improvement rate: reduction of tender joint count ([3]; 120 mg/day): 22.7%; improvement rate: patient's assessment of pain ([3]; 120 mg/day): 17.1%; improvement rate: patient's global assessment of disease activity ([3]; 120 mg/day): 14.2%; improvement rate: physician's global assessment of disease activity ([3]; 120 mg/day): 24.1%; improvement rate: CRP ([3]; 120 mg/day): −98.6; ACR20 improvement rate ([3]; 120 mg/day, 16 weeks, CRP used as item 7)): 37.0%; ACR20 improvement rate [3, 7]: 37.0%; ACR50 improvement rate [3, 7]: 13.0%; Number of ACR50 responders ([3]; 120 mg/day, 54 patients): 7; Number of ACR20 responders ([3]; 120 mg/day, 54 patients, CRP used): 20; Number of ACR20 responders ([3]; 120 mg/day, 54 patients, erythrocyte sedimentation rate used): 20; ACR20 improvement rate ([3]; total active groups (40, 80, 120 mg/day), Group A, DMARDs treatment history = 1-2 drugs): 44%; ACR20 improvement rate ([3]; total active groups (40, 80, 120 mg/day), Group B, DMARDs treatment history = 3-5 drugs): 32%; ACR20 responders / cases ([3]; total active groups, Group A, DMARDs treatment history = 1-2 drugs): 32/72; ACR20 responders / cases ([3]; total active groups, Group B, DMARDs treatment history = 3-5 drugs): 29/92; ACR20 improvement rate [3, 8]: 50%; ACR20 responders / cases [3, 8]: 36/72; ACR20 improvement rate [3, 9]: 27%; ACR20 responders / cases [3, 9]: 25/92; ACR20 improvement rate [3, 10]: 42%; ACR20 responders / cases [3, 10]: 31/74; ACR20 improvement rate [3, 11]: 33%; ACR20 responders / cases [3, 11]: 30/90; antiarthritic effect ([4]; mice with collagen arthritis): antiarthritic effect; minimum effective amount for antiarthritic effect ([4]; once-a-day oral administration): 5 mg/kg
